Assays:
[1] = system: Aspergillus niger ATCC 6275; test: MIC values, water-soluble (inhibition titre, dilution series in CSL); assay type: cell-based
[2] = system: Staphylococcus aureus ATCC 6538; test: as above; assay type: cell-based
Procedure: (§1) Standard formulation: • Rewopal MPG 40 25.0 g • aromatic alcohol 10 mmol • dem.* water to 100 g • lactic acid for adjusting the pH value to 7.0 q.s.
(§2) In sterile test tubes, 5 ml each of the dilutions of the disinfectant in WSH (water of standardized hardness) are mixed with 5 ml double-concentrated casein peptone soybean flour peptone solution (CSL) or CSL and deactivating substances.
(§3) To determine the bacteriostatic action on Staphylococcus aureus and Proteus mirabilis the tubes are inoculated by adding 0.1 ml of a CSL culture diluted 1:10 with CSL and incubated for 24 h at 37°C.
(§4) To test the fungistatic action, 0.1 ml of an undiluted CSL culture of Candida albicans which has been incubated at 37°C for 72 h is used in each case. Evaluation takes place after 72 h at 37°C.
(§5) The highest dilution of the preparation in CSL or CSL and deactivating substances that still suppresses growth of the test germs after […] incubation serves as the measure of the multiplication-inhibiting action (inhibition titre).
(§6) In the case of the disinhibition tests, the culture media are to be adjusted to a pH value of 7.0 ± 0.2 according to the state of the disinfectant.
(§7) Standard formulation: • aromatic alcohol 5.0 % • Brij 58 5.0 % • 1,3-butanediol to 100 • Test germs: see above • Test method: see above

[3] = system: Candida albicans ATCC 10231; test: as above; assay type: cell-based
Procedure: as §1, §2, §3, §4, §5, §6, §7

[4] = system: Proteus vulgaris NCTC 4635; test: as above; assay type: cell-based
[5] = system: Mycobacterium terrae ATCC 15755; test: Germ carrier experiment with standard cotton; assay type: cell-based; parameters: key: E: individual colonies; M: several colonies; +: weak growth; ++: moderate growth; +++: heavy growth; ++++: very heavy growth; ∞: lawn growth; details: Rewopal MPG 40 25.0%, aromatic alcohol 2.0 %, dem. water to 100
Procedure: • Rewopal MPG 40 25.0% • aromatic alcohol 2.0 % • dem. water to 100
The bacteria are elutriated with 5 ml CSL from a 24 h-old (37°C) culture onto CSA plates measuring approx. 9 cm in diameter, the suspension being diluted with CSL if necessary. The number of CFU/ml is to be determined using surface culture. It should be > 10^9/ml.
The sterilized and dried germ carriers are introduced into the bacterial suspension and left in it for 15 minutes, during which they are turned over twice.
A number (4) of contaminated, thoroughly impregnated germ carriers, corresponding to the proposed removal times - 15, 30, 60 and 120 minutes - is placed in a small dish and 10 ml of the disinfectant solution to be tested in WSH are poured over them. Air bubbles are to be removed by repeated turning of the germ carriers.
After the corresponding action times, the germ carriers are to be removed from the disinfectant solution, and after rinsing twice in each case for 1 min in 10 ml ML solution (see Appendix) to which the deactivating substances were optionally added, the germ carriers are placed onto the surface of a Löwenstein-Jensen nutrient medium with tweezers and moved backwards and forwards 3 to 4 times using light pressure. After inoculating the nutrient medium surface the small cloth is to remain lying directly above the condensed water level of the nutrient medium.
Germ carriers pre-treated in the same way, but kept in WSH for 120 minutes instead of in disinfectant solution are to be inoculated as a control. The inoculated tubes are incubated at 37°C for 3 weeks.

[6] = system: Penicillium funiculosum ATCC 36839; test: MIC values, water-soluble (inhibition titre, dilution series in CSL); assay type: cell-based
Microsporon gypseum [7] = test: Foot spray: agar diffusion test; assay type: cell-based; details: foot spray formula with aromatic alcohol 0.2 %
Text: (§8) Formula: • 2-propanol 40.0% • aromatic alcohol 0.2 % • allantoin 0.5 % • dem. water to 100 Test germs: special skin fungi such as Trichophyton rubrum, Trichophyton mentagrophytes (ATCC 9533), Microsporon gypseum Test method: Determination of the minimum inhibition concentration (method see under 1.) Data in % Test germs: special skin fungi such as Trichophyton rubrum, Trichophyton mentagrophytes, Microsporon gypseum Test method: Agar diffusion test Data as millimetres inhibition zone

[8] = system: Trichophyton mentagrophytes; test: Foot spray: agar diffusion test; assay type: cell-based; details: foot spray formula with aromatic alcohol 0.2 %
Text: as §8

Trichophyton rubrum [9] = test: Foot spray: agar diffusion test; assay type: cell-based; details: foot spray formula with aromatic alcohol 0.2 %
Text: as §8

[10] = system: Microsporon luteus ATCC 15442; test: Skin antiseptic a): test on skin of subjects, contamination after 1 h, ring method; assay type: in vivo; details: aromatic alcohol 1.0% in 1-propanol 30.0%, 2-propanol 45.0%, 0.2 ml on 10cm^2 skin, germs removed after 15 minutes, average of all 10 subjects
Procedure: • 1-propanol 30.0% • 2-propanol 45.0% • aromatic alcohol 1.0% • dem. water to 100 Test germ: Microsporon luteus ATCC 15442 Test method: Apply 0.2 ml preparation to 10cm^2 skin, allow to dry, cover with TEGADERM® film and leave to work for 1 h, contaminate with 0.1 ml germ suspension, remove after 15 minutes with ring method Reference: Control against Neo-Kodan® Number of subjects: 10 subjects

Microsporon gypseum [11] = test: Foot spray: minimum inhibition concentration; assay type: cell-based; details: foot spray formula: 2-propanol 40.0%, aromatic alcohol 0.2 %, allantoin 0.5 %, dem. water to 100
Text: (§9) Formula: • 2-propanol 40.0% • aromatic alcohol 0.2 % • allantoin 0.5 % • dem. water to 100 Test germs: special skin fungi such as Trichophyton rubrum, Trichophyton mentagrophytes (ATCC 9533), Microsporon gypseum Test method: Determination of the minimum inhibition concentration (method see under 1.) Data in %

[12] = system: Trichophyton mentagrophytes (ATCC 9533); test: Foot spray: minimum inhibition concentration; assay type: cell-based; details: foot spray formula: 2-propanol 40.0%, aromatic alcohol 0.2 %, allantoin 0.5 %, dem. water to 100
Text: as §9

Trichophyton rubrum [13] = test: Foot spray: minimum inhibition concentration; assay type: cell-based; details: foot spray formula: 2-propanol 40.0%, aromatic alcohol 0.2 %, allantoin 0.5 %, dem. water to 100
Text: as §9

[14] = standard formulation: Rewopal MPG 40 25.0 g, aromatic alcohol 10 mmol, dem. water to 100 g, pH 7.0
[15] = standard formulation: aromatic alcohol 5.0 %, Brij 58 5.0 %, 1,3-butanediol to 100

SMILES	MIC (minimum inhibiting concentration) A. niger [1, 14] [μmol/100 ml test solution]	MIC (minimum inhibiting concentration) S. aureus [2, 14]	MIC (minimum inhibiting concentration) C. albicans [3, 14] [μmol/100 ml test solution]	MIC (minimum inhibiting concentration) P. vulgaris [4, 14]	growth of M. terrae after action time 15' [5]	growth of M. terrae after action time 30' [5]	growth of M. terrae after action time 60' [5]	growth of M. terrae after action time 120' [5]	MIC (minimum inhibiting concentration) P. funi. [6, 14] [μmol/100 ml test solution]	inhibition zone, M. gypseum (Microsporon gypseum [7]; use concentration 100%) [mm]	inhibition zone, T. mentagrophytes ([8]; use concentration 100%) [mm]	inhibition zone, T. rubrum (Trichophyton rubrum [9]; use concentration 100%) [mm]	Average value of RF (reduction factors) [10] [log stages]	minimum inhibition concentration, M. gypseum (Microsporon gypseum [11]) [%]	minimum inhibition concentration, T. mentagrophytes [12] [%]	minimum inhibition concentration, T. rubrum (Trichophyton rubrum [13]) [%]	further results
OCCCc1ccccc1 [Alcohol 1, 3-phenyl propanol, reference compound]	625	1,250 μmol/100 ml test solution	625	625 μmol/100 ml test solution	++++	++++	+++	+++	313	0	0	0	0	6.25	6.25	6.25	MIC (minimum inhibiting concentration) A. niger [1, 15]: 625 µmol/100 ml test solution; MIC (minimum inhibiting concentration) S. aureus [2, 15]: 1,250 µmol/100 ml test solution; MIC (minimum inhibiting concentration) C. albicans [3, 15]: 625 µmol/100 ml test solution; MIC (minimum inhibiting concentration) P. vulgaris [4, 15]: 625 µmol/100 ml test solution; MIC (minimum inhibiting concentration) P. funi. [6, 15]: 313 µmol/100 ml test solution
CCCCCC(=Cc1ccccc1)CO [Alcohol 8, α-amyl cinnamyl alcohol]	156	39 μmol/100 ml test solution	313	1,250 μmol/100 ml test solution	+++	++	+	E	313	19	22	23	1.9	1.56	1.56	1.56	inhibition zone, M. gypseum (Microsporon gypseum [7]; use concentration 50%): 10 mm; inhibition zone, T. mentagrophytes ([8]; use concentration 50%): 14 mm; inhibition zone, T. rubrum (Trichophyton rubrum [9]; use concentration 50%): 14 mm
